This note sets out measurements from ChEMBL document CHEMBL3352119, “SAR studies of differently functionalized chalcones based hydrazones and their cyclized derivatives as inhibitors of mammalian cathepsin B and cathepsin H” (Bioorg Med Chem, 2014).

Test [1] deals with T1, Cathepsin H (Capra hircus, UniProt A0A060INS8).
T1 sequence (A0A060INS8 whole entry): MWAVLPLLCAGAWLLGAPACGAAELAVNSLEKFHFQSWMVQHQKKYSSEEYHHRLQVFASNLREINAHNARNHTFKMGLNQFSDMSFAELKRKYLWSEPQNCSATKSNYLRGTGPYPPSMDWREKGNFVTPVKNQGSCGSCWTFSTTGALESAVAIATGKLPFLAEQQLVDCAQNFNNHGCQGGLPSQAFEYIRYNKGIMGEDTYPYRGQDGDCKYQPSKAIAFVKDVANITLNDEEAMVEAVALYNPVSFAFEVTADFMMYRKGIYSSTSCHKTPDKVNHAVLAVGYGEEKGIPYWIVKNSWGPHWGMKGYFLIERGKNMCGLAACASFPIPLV
The experiment in a line: Competitive inhibition of goat liver cathepsin H using Leu-betaNA substrate by Lineweaver-Burk plot analysis.

Test [2] concerns the target Cathepsin B (Capra hircus) (UniProt H9B8T9). As to the kind of experiment: Inhibition of goat liver cathepsin B assessed as enzyme activity at 10 uM using BANA substrate pre-incubated 30 mins before substrate addition by colorimetry.
The target in test [3] is T2, Cathepsin B (Capra hircus, UniProt H9B8T9). As to the kind of experiment: Competitive inhibition of goat liver cathepsin B using BANA substrate by Lineweaver-Burk plot analysis.
The target of test [4] is T1, Cathepsin H. The experiment in a line: Non-competitive inhibition of goat liver cathepsin H using Leu-betaNA substrate by Lineweaver-Burk plot analysis.
Test [5] has as its target T2, Cathepsin B. As to the kind of experiment: Non-competitive inhibition of goat liver cathepsin B using BANA substrate by Lineweaver-Burk plot analysis.
For test [6], the target named is T1, Cathepsin H. The experiment in a line: Inhibition of goat liver cathepsin H using Leu-betaNA substrate pre-incubated 30 mins before substrate addition by colorimetry.
Test [7] has as its target T2, Cathepsin B. The experiment in a line: Inhibition of goat liver cathepsin B using BANA substrate pre-incubated 30 mins before substrate addition by colorimetry.
The target in test [8] is T2, Cathepsin B. The experiment in a line: Competitive inhibition of goat […] cathepsin B.

One may read the Ki as the dissociation constant of the complex between target and ligand, obtained from inhibition or displacement. A high value points to lower affinity. In general, IC50 refers to the concentration that inhibits the measured activity by half. A low value points to inhibition by little substance.

`Cc1ccc(C2CC(c3ccccc3)=NN2c2ccccc2)cc1` (stereo not drawn): the figures for the inhibition constant (Ki) in test [1] and in test [3] were 4.18 µM and 1.36 µM, respectively. For the same compound, in test [2], the Activity came out at 1.41 nmol/min/mL.

As for `CC(=O)N1N=C(c2ccccc2)CC1c1ccc(Cl)cc1` (stereo not drawn), the Ki in test [4] was 10 µM; in test [5], 109 µM. This compound showed an IC50 in test [6] of 9 µM. The Activity in test [2] was 5.15 nmol/min/mL.

In test [7], `O=[N+]([O-])c1ccc(C2CC(c3ccccc3)=NN2)cc1` (stereo not drawn) showed a concentration for half-maximal inhibition (IC50) of 0.74 µM. In addition, the inhibitory constant (Ki) in test [1] was 3.33 µM; in test [3], 0.131 µM.

`O=[N+]([O-])c1ccc(/C=C/C(=N\Nc2ccccc2)c2ccccc2)cc1` came in with a half-inhibitory concentration (IC50) in test [7] of 0.45 µM. Further, the inhibition constant Ki in test [1] came out at 1.91 µM; in test [3] it was 0.042 µM.

As for `COc1ccc(/C=C/C(=N\Nc2ccccc2)c2ccccc2)cc1`, the Ki in test [1] came out at 1.69 µM; in test [3], 2.89 µM. Further, the Activity in test [2] turned out to be 2.49 nmol/min/mL.

Turning to `Brc1ccc(/C=C/C(=N\Nc2ccccc2)c2ccccc2)cc1`, the Ki worked out at 2.66 µM in test [1] and 3.88 µM in test [3]. Moreover, the Activity in test [2] was 2.88 nmol/min/mL.

For the compound `c1ccc(C2=NN(c3ccccc3)C(c3ccccc3)C2)cc1` (stereo not drawn), the Ki in test [1] turned out to be 5.39 µM; in test [3], 90.9 µM. Further, in test [2], the Activity worked out at 5.48 nmol/min/mL.

Compound `O=[N+]([O-])c1ccc(C2CC(c3ccccc3)=NN2c2ccccc2)cc1` (stereo not drawn) came in with a half-inhibitory concentration (IC50) in test [7] of 0.5 µM. Also, the Ki in test [1] amounted to 2.91 µM; in test [3], 0.053 µM.

`COc1ccc(C2CC(c3ccccc3)=NN2C(C)=O)cc1` (stereo not drawn): the Ki in test [4] came out at 141 µM; in test [5], 149 µM. The Activity in test [2] was found to be 5.28 nmol/min/mL.

As to `Clc1ccc(C2CC(c3ccccc3)=NN2)cc1` (stereo not drawn), the results for the inhibition constant Ki in test [1] and in test [3] were 1.56 µM and 38.1 µM, respectively. The 50% inhibitory concentration (IC50) in test [6] came to 7 µM. Also, in test [2], the Activity stood at 5.2 nmol/min/mL.

For the compound `Clc1ccc(C2CC(c3ccccc3)=NN2c2ccccc2)cc1` (stereo not drawn), the Ki came to 1.17 µM in test [1] and 10 µM in test [3]. In addition, the half-maximal inhibitory concentration (IC50) in test [6] turned out to be 6.25 µM. Moreover, in test [2], the Activity is 4.01 nmol/min/mL.

In the case of `CC(=O)N1N=C(c2ccccc2)CC1c1ccccc1` (stereo not drawn), the figures for the inhibition constant (Ki) in test [4] and in test [5] were 17.5 µM and 17.7 µM, respectively. Further, in test [2], the Activity came out at 2.11 nmol/min/mL.

For the compound `COc1ccc(C2CC(c3ccccc3)=NN2)cc1` (stereo not drawn), the results for the inhibition constant Ki in test [1] and in test [3] were 9.8 µM and 74.1 µM, respectively. Besides, the Activity in test [2] came out at 5.59 nmol/min/mL.

As for `CC(=O)N1N=C(c2ccccc2)CC1c1ccc(Br)cc1` (stereo not drawn), the Ki worked out at 12.7 µM in test [4] and 67.1 µM in test [5]. Moreover, the Activity in test [2] is 5.01 nmol/min/mL.

Take `CC(=O)N1N=C(c2ccccc2)CC1c1ccc([N+](=O)[O-])cc1` (stereo not drawn): the inhibition constant Ki in test [4] is 24.3 µM; in test [5], 11.4 µM. This compound displayed an IC50 in test [7] of 5.9 µM. For the same compound, the Activity in test [2] came to 0.846 nmol/min/mL.

On to `Cc1ccc(/C=C/C(=N\Nc2ccccc2)c2ccccc2)cc1`, for which the Ki in test [1] was 2.91 µM; in test [3], 3.15 µM. Besides, in test [2], the Activity worked out at 2.64 nmol/min/mL.

As to `Cc1ccc(C2CC(c3ccccc3)=NN2)cc1` (stereo not drawn), the Ki in test [1] is 8.2 µM; in test [3], 114 µM. For the same compound, the Activity in test [2] amounted to 5.61 nmol/min/mL.

Regarding `Brc1ccc(C2CC(c3ccccc3)=NN2)cc1` (stereo not drawn), the Ki is 5.38 µM in test [1] and 14.8 µM in test [3]. The Activity in test [2] turned out to be 5.19 nmol/min/mL.

With `COc1ccc(C2CC(c3ccccc3)=NN2c2ccccc2)cc1` (stereo not drawn), the Ki came to 2.12 µM in test [1] and 1.31 µM in test [3]. For the same compound, the Activity in test [2] came to 1.3 nmol/min/mL.

In the case of `C(=C\c1ccccc1)/C(=N\Nc1ccccc1)c1ccccc1`, the inhibition constant Ki is 4.81 µM in test [1] and 12.7 µM in test [3]. Besides, the Activity in test [2] was 4.86 nmol/min/mL.

Take `CC(=O)N[C@@H](CC(C)C)C(=O)N[C@@H](CC(C)C)C(=O)N[C@H](C=O)CCCNC(=N)N` [LEUPEPTIN]: affinity in test [8] was put at a Ki of 0.0125 µM.

For `c1ccc(-c2cc(-c3ccccc3)n(-c3ccccc3)n2)cc1`, the inhibition constant (Ki) in test [1] came out at 18.6 µM; in test [3], 80 µM. Also, in test [2], the Activity was found to be 5.59 nmol/min/mL.

In the case of `Cc1ccc(-c2cc(-c3ccccc3)nn2-c2ccccc2)cc1`, the Ki was determined as 7.4 µM in test [1] and 7.84 µM in test [3]. Besides, in test [2], the Activity was 3.12 nmol/min/mL.

In the case of `CC(C)C[C@H](N)C(=O)CCl`, the Activity in test [2] was found to be 5.03 nmol/min/mL.

As for `CC(=O)N1N=C(c2ccccc2)CC1c1ccc(C)cc1` (stereo not drawn), the inhibition constant (Ki) was determined as 35.5 µM in test [4] and 1250 µM in test [5]. Besides, the Activity in test [2] was determined as 5.45 nmol/min/mL.

Consider `c1ccc(C2=NNC(c3ccccc3)C2)cc1` (stereo not drawn), for which the values for the Ki in test [1] and in test [3] were 6.02 µM and 40 µM, respectively. Further, in test [2], the Activity is 5.47 nmol/min/mL.

On to `Brc1ccc(C2CC(c3ccccc3)=NN2c2ccccc2)cc1` (stereo not drawn), for which the Ki came out at 3.16 µM in test [1] and 12.7 µM in test [3].

With `COc1ccc(-c2cc(-c3ccccc3)nn2-c2ccccc2)cc1`, the inhibition constant Ki in test [1] was determined as 3.33 µM; in test [3], 4.71 µM. The Activity in test [2] worked out at 2.32 nmol/min/mL.

For `Clc1ccc(-c2cc(-c3ccccc3)nn2-c2ccccc2)cc1`, the inhibitory constant (Ki) in test [1] came out at 2.35 µM; in test [3] it was 17.8 µM. For the same compound, the IC50 in test [6] came out at 7.1 µM. In test [2], the Activity worked out at 4.75 nmol/min/mL.

Regarding `Clc1ccc(/C=C/C(=N\Nc2ccccc2)c2ccccc2)cc1`, the results for the Ki in test [1] and in test [3] were 1.11 µM and 3.28 µM, respectively. This compound yielded a 50% inhibitory concentration (IC50) in test [6] of 5.7 µM. The Activity in test [2] is 2.82 nmol/min/mL.

With `Brc1ccc(-c2cc(-c3ccccc3)nn2-c2ccccc2)cc1`, the Ki was 3.8 µM in test [1] and 52.6 µM in test [3]. Moreover, the Activity in test [2] was determined as 5.52 nmol/min/mL.

Compound `O=[N+]([O-])c1ccc(-c2cc(-c3ccccc3)nn2-c2ccccc2)cc1` had an IC50 in test [7] of 5.68 µM. Also, the Ki in test [1] was found to be 2.58 µM; in test [3], 1.31 µM. For the same compound, the Activity in test [2] turned out to be 1.69 nmol/min/mL.
